Assay results taken from publication PMC4418667 (PLoS ONE, 2015).

target: T1, IKKβ (Homo sapiens, UniProt O14920); assay: biochemical
T1 construct: gene IKBKB
T1 sequence (O14920 1-756): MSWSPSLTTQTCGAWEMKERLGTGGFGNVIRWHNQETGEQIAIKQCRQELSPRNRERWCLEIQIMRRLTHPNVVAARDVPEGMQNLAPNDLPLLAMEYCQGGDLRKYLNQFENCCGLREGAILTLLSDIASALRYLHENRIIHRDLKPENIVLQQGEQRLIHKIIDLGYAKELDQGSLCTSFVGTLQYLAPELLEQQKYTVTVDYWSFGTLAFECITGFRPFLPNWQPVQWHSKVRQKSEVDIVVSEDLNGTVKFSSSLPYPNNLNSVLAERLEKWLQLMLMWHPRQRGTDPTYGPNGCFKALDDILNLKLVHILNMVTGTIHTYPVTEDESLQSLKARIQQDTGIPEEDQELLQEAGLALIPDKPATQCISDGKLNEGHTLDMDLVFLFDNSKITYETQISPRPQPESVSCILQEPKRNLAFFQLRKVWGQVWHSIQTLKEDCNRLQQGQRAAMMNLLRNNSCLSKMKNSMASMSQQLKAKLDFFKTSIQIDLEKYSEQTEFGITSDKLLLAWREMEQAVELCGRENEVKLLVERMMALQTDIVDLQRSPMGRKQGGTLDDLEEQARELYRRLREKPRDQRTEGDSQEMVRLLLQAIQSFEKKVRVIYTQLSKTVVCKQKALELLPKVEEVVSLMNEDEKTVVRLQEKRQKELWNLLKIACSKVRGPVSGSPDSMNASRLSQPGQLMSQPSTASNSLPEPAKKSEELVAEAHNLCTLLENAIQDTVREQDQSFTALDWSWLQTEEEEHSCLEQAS

Structure (SMILES)	IC50 [µM]
C[C@H]1[C@H](C)CC[C@]2(C(=O)O)CC[C@]3(C)C(=CC[C@@H]4[C@@]5(C)C[C@@H](O)[C@H](O)[C@@](C)(CO)[C@@H]5CC[C@]43C)[C@H]12 [AA, Asiatic Acid]	95
C[C@H]1[C@H](C)CC[C@]2(C(=O)O)CC[C@]3(C)C(=CC[C@@H]4[C@@]5(C)CC[C@H](O)C(C)(C)[C@@H]5CC[C@]43C)[C@H]12 [UA, Ursolic Acid]	69
C[C@H]1[C@H](C)CC[C@]2(C(=O)O)CC[C@]3(C)C(=CC[C@@H]4[C@@]5(C)C[C@@H](O)[C@H](O)C(C)(C)[C@@H]5CC[C@]43C)[C@H]12 [CA, Corosolic Acid]	89.3
